Measured values reported in the NIST ThermoML archive (doi:10.1016/j.jct.2005.10.019).
± gives the expanded uncertainty stated by the source.

Columns and labels:
[1] = 298.15 K; 101.33 kPa; Liquid
[2] = excess molar enthalpy (molar enthalpy of mixing); xn = mol fraction of the nth substance listed; conditions: 298.15 K, 101 kPa, Liquid

C[C@H](N)c1ccccc1 [(S)-(-)-αmethylbenzylamine]
Conditions | mass density [kg/m3]
[1] | 965.49 ± 0.16

ClC[C@H]1CO1 [(2R)-(chloromethyl)-oxirane]
Conditions | mass density [kg/m3]
[1] | 1093.3 ± 1.3

C[C@H]1COC(=O)O1 [(S)-4-methyl-1,3-dioxolan-2-one]
Conditions | mass density [kg/m3]
[1] | 1199.5 ± 0.3

C[C@H](NCc1ccccc1)c1ccccc1 [(S)-N-benzyl-1-phenylethylamine] + C[C@@H](NCc1ccccc1)c1ccccc1
[2]
Conditions | excess molar enthalpy [kcal/mol]
x1 = 0.05697 | -0.000214 ± 0.000122
x1 = 0.09481 | -0.00033 ± 0.000122
x1 = 0.1905 | -0.000609 ± 0.000122
x1 = 0.2961 | -0.000821 ± 0.000124
x1 = 0.4009 | -0.000962 ± 0.000124
x1 = 0.5331 | -0.00102 ± 0.000124
x1 = 0.5712 | -0.00101 ± 0.000124
x1 = 0.6151 | -0.000962 ± 0.000124
x1 = 0.7271 | -0.000831 ± 0.000124
x1 = 0.7998 | -0.000686 ± 0.000124
x1 = 0.8805 | -0.000439 ± 0.000122
x1 = 0.9576 | -0.000186 ± 0.00012

C[C@@H]1COC(=O)O1 [(R)-4-methyl-1,3-dioxolan-2-one] + C[C@H]1COC(=O)O1
[2]
Conditions | excess molar enthalpy [kcal/mol]
x2 = 0.02206 | -0.000169 ± 0.00012
x2 = 0.04317 | -0.000327 ± 0.000122
x2 = 0.06338 | -0.00048 ± 0.000122
x2 = 0.06919 | -0.00046 ± 0.000122
x2 = 0.08276 | -0.000615 ± 0.000122
x2 = 0.1014 | -0.000734 ± 0.000124
x2 = 0.1192 | -0.000848 ± 0.000124
x2 = 0.1294 | -0.000859 ± 0.000124
x2 = 0.1364 | -0.000953 ± 0.000124
x2 = 0.1529 | -0.00105 ± 0.000124
x2 = 0.1688 | -0.00114 ± 0.000124
x2 = 0.1823 | -0.00115 ± 0.000124
x2 = 0.1841 | -0.00122 ± 0.000127
x2 = 0.1988 | -0.00129 ± 0.000127
x2 = 0.213 | -0.00136 ± 0.000127
x2 = 0.2268 | -0.00142 ± 0.000127
x2 = 0.2292 | -0.00143 ± 0.000127
x2 = 0.2709 | -0.00163 ± 0.000127
x2 = 0.3084 | -0.0017 ± 0.000129
x2 = 0.3422 | -0.00178 ± 0.000129
x2 = 0.3673 | -0.00185 ± 0.000129
x2 = 0.3729 | -0.00186 ± 0.000129
x2 = 0.3988 | -0.00191 ± 0.000129
x2 = 0.4008 | -0.00191 ± 0.000129
x2 = 0.4264 | -0.00196 ± 0.000129
x2 = 0.4363 | -0.00197 ± 0.000129
x2 = 0.4366 | -0.00198 ± 0.000129
x2 = 0.4627 | -0.00203 ± 0.000129
x2 = 0.4815 | -0.00201 ± 0.000129
x2 = 0.4921 | -0.00205 ± 0.000129
x2 = 0.5254 | -0.00205 ± 0.000129
x2 = 0.5372 | -0.00199 ± 0.000129
x2 = 0.5551 | -0.002 ± 0.000129
x2 = 0.5959 | -0.00197 ± 0.000129
x2 = 0.6186 | -0.00195 ± 0.000129
x2 = 0.6431 | -0.00192 ± 0.000129
x2 = 0.6596 | -0.00184 ± 0.000129
x2 = 0.6697 | -0.00184 ± 0.000129
x2 = 0.6985 | -0.00176 ± 0.000129
x2 = 0.699 | -0.0017 ± 0.000129
x2 = 0.7209 | -0.00166 ± 0.000127
x2 = 0.73 | -0.00162 ± 0.000127
x2 = 0.7641 | -0.00146 ± 0.000127
x2 = 0.7644 | -0.00151 ± 0.000127
x2 = 0.7782 | -0.0014 ± 0.000127
x2 = 0.7929 | -0.00133 ± 0.000127
x2 = 0.7949 | -0.00133 ± 0.000127
x2 = 0.7997 | -0.00129 ± 0.000127
x2 = 0.8022 | -0.00132 ± 0.000127
x2 = 0.8081 | -0.00126 ± 0.000127
x2 = 0.8122 | -0.00124 ± 0.000127
x2 = 0.8228 | -0.00114 ± 0.000124
x2 = 0.8239 | -0.00118 ± 0.000124
x2 = 0.8252 | -0.00118 ± 0.000124
x2 = 0.8385 | -0.00111 ± 0.000124
x2 = 0.8404 | -0.00109 ± 0.000124
x2 = 0.8439 | -0.00109 ± 0.000124
x2 = 0.8522 | -0.00104 ± 0.000124
x2 = 0.8575 | -0.000996 ± 0.000124
x2 = 0.8665 | -0.000943 ± 0.000124
x2 = 0.8753 | -0.00089 ± 0.000124
x2 = 0.8812 | -0.000858 ± 0.000124
x2 = 0.8857 | -0.000833 ± 0.000124
x2 = 0.8902 | -0.000801 ± 0.000124
x2 = 0.8939 | -0.000772 ± 0.000124
x2 = 0.8964 | -0.000764 ± 0.000124
x2 = 0.9121 | -0.00066 ± 0.000122
x2 = 0.9133 | -0.000646 ± 0.000122
x2 = 0.9285 | -0.000551 ± 0.000122
x2 = 0.9335 | -0.000502 ± 0.000122
x2 = 0.9419 | -0.00044 ± 0.000122
x2 = 0.9454 | -0.000425 ± 0.000122
x2 = 0.9547 | -0.00035 ± 0.000122
x2 = 0.9629 | -0.000295 ± 0.000122
x2 = 0.9768 | -0.000184 ± 0.00012
x2 = 0.9811 | -0.000151 ± 0.00012

C[C@@H]1COC(=O)O1 [(R)-4-methyl-1,3-dioxolan-2-one]
Conditions | mass density [kg/m3]
[1] | 1199.4 ± 0.3

COC(=O)[C@H](C)CO [(2R)-3-hydroxy-2-methyl-propanoic acid methyl ester]
Conditions | mass density [kg/m3]
[1] | 1067.5 ± 0.2

COC(=O)[C@@H](C)CO [(2S)-3-hydroxy-2-methyl-propanoic acid methyl ester]
Conditions | mass density [kg/m3]
[1] | 1069.6 ± 0.2

CCCC(=O)OC[C@@H]1CO1 [S-(-)-glycidyl butyrate]
Conditions | mass density [kg/m3]
[1] | 1029.7 ± 0.9

C[C@@H](NCc1ccccc1)c1ccccc1 [(R)-(+)-N-benzyl-1-phenylethylamine]
Conditions | mass density [kg/m3]
[1] | 1007.7 ± 0.2

ClC[C@@H]1CO1 [(2S)-chloromethyl-oxirane]
Conditions | mass density [kg/m3]
[1] | 1093.5 ± 1.3

C[C@H](NCc1ccccc1)c1ccccc1 [(S)-N-benzyl-1-phenylethylamine]
Conditions | mass density [kg/m3]
[1] | 1007.9 ± 0.2

COC(=O)[C@H](C)CO [(2R)-3-hydroxy-2-methyl-propanoic acid methyl ester] + COC(=O)[C@@H](C)CO
[2]
Conditions | excess molar enthalpy [kcal/mol]
x2 = 0.08854 | 0.000741 ± 0.000124
x2 = 0.08893 | 0.000787 ± 0.000124
x2 = 0.08959 | 0.00072 ± 0.000124
x2 = 0.1627 | 0.00131 ± 0.000127
x2 = 0.1633 | 0.00127 ± 0.000127
x2 = 0.1645 | 0.0013 ± 0.000127
x2 = 0.2257 | 0.00171 ± 0.000129
x2 = 0.2265 | 0.00168 ± 0.000129
x2 = 0.2279 | 0.00172 ± 0.000129
x2 = 0.2798 | 0.00199 ± 0.000129
x2 = 0.2808 | 0.00198 ± 0.000129
x2 = 0.2825 | 0.002 ± 0.000129
x2 = 0.3269 | 0.00218 ± 0.000131
x2 = 0.328 | 0.00217 ± 0.000131
x2 = 0.3298 | 0.00221 ± 0.000131
x2 = 0.3682 | 0.00232 ± 0.000131
x2 = 0.3693 | 0.00231 ± 0.000131
x2 = 0.3713 | 0.00234 ± 0.000131
x2 = 0.4048 | 0.00241 ± 0.000131
x2 = 0.4059 | 0.00239 ± 0.000131
x2 = 0.4079 | 0.00242 ± 0.000131
x2 = 0.4373 | 0.00247 ± 0.000131
x2 = 0.4385 | 0.00246 ± 0.000131
x2 = 0.4405 | 0.00248 ± 0.000131
x2 = 0.4665 | 0.00251 ± 0.000131
x2 = 0.4677 | 0.00249 ± 0.000131
x2 = 0.4697 | 0.0025 ± 0.000131
x2 = 0.4928 | 0.00251 ± 0.000131
x2 = 0.4939 | 0.0025 ± 0.000131
x2 = 0.496 | 0.0025 ± 0.000131
x2 = 0.5037 | 0.00253 ± 0.000131
x2 = 0.5048 | 0.00253 ± 0.000131
x2 = 0.53 | 0.00252 ± 0.000131
x2 = 0.5311 | 0.00252 ± 0.000131
x2 = 0.5592 | 0.00248 ± 0.000131
x2 = 0.5602 | 0.00249 ± 0.000131
x2 = 0.5918 | 0.00242 ± 0.000131
x2 = 0.5928 | 0.00243 ± 0.000131
x2 = 0.6285 | 0.00233 ± 0.000131
x2 = 0.6294 | 0.00233 ± 0.000131
x2 = 0.6699 | 0.00218 ± 0.000131
x2 = 0.6709 | 0.00218 ± 0.000131
x2 = 0.7173 | 0.00196 ± 0.000129
x2 = 0.7182 | 0.00198 ± 0.000129
x2 = 0.7718 | 0.00167 ± 0.000127
x2 = 0.7726 | 0.00168 ± 0.000129
x2 = 0.8354 | 0.00125 ± 0.000127
x2 = 0.836 | 0.00126 ± 0.000127
x2 = 0.9103 | 0.000702 ± 0.000124
x2 = 0.9107 | 0.000702 ± 0.000124
